Results: publication doi:10.1101/2023.04.24.538046v2 (biorxiv, 2023)

Target: TcMIP (Trypanosoma cruzi, UniProt Q09734)
Experiment: biochemical

Sequence of TcMIP (Q09734 30-196 limits assumed): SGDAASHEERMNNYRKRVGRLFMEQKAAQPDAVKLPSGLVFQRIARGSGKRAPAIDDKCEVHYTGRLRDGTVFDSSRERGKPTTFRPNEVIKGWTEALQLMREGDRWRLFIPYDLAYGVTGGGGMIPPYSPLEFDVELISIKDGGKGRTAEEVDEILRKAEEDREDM

Row | Compound | Kd [nM]
1 | O=C1[C@@H]2CCC[C@H]([C@@H](CO)CN1Cc1ccccn1)N2S(=O)(=O)c1cc(Cl)cc(Cl)c1 [JK095, (1S,5S,6R)-10-((3,5-dichlorophenyl)sulfonyl)-5-(hydroxymethyl)-3-(pyridin-2-ylmethyl)-3,10-diazabicyclo [4.3.1]decan-2-one] | 599 ± 25.5
2 | C[C@@H](c1ccccn1)N1C[C@H](CO)[C@H]2CCC[C@@H](C1=O)N2S(=O)(=O)c1cc(Cl)cc(Cl)c1 [JK236] | 45.5 ± 9.2
